Reference: patent US20190226949A1, “IRIDIUM COMPLEXES FOR CELLULAR IMAGING” (UNIVERSITY OF SOUTH AUSTRALIA, priority 2016, published 2019)
“And” between values parts separate entries of the source, which are not always exact repeats. Identical values can stand only once. “Also recorded” adds a separate entry of the source. Values belong to the compound of their own block, whether it stands above or below them.

What was measured:
[1] = tested on: non-malignant control PNT1a cells; assay: Staining of prostate cells with lipid dyes, PNT1a; format: cell-based, Human; conditions: PNT1a fixed in 4% paraformaldehyde, 30 minutes
Method: (§1) The fluorescent dyes, Filipin and BODIPY® 493/503, were incubated for 30 minutes with each of the four prostate cell lines (i.e. PNT1a, DU145, 22RV1 and LNCaP), fixed in 4% paraformaldehyde and imaged under confocal microscopy, which was supplemented with two-photon Mai-Tai® and Argon lasers. Prostate cell lines grown on coverslips were stained with ReZolve-L1™ and IraZolve [Ir(ppy)2(TzPyCN)] in serum-free media for 30 minutes at 37° C. and 5% CO2 and imaged in live mode, avoiding the process of fixation. From this experiment, different staining patterns between prostate cell lines and the fluorescent dyes were clearly seen (FIG. 12). For example, the level of diffuse cytosolic staining vs membrane staining with Filipin varied between cell lines (FIG. 12 a-d). […] Differences in the 22RV1 and LNCaP staining pattern in comparison to PNT1a and DU145 were apparent with BODIPY® 493/503 fluorescent dye. […] The fluorescence of ReZolve-L1™ was low in non-malignant control PNT1a cells, when compared to prostate cancer cells (FIG. 12i-l). […] These positive results prompted us to analyse staining of the prostate cells with the fluorescent dye IraZolve (FIG. 12m-p). […] In contrast, the intensity of staining in the malignant cell lines DU145, 22RV1 and LNCaP with ReZolve-L1™ was significant. […]

[2] = tested on: prostate cancer 22RV1 cells; assay: Staining of prostate cells with lipid dyes, 22RV1; format: cell-based, Human; conditions: 22RV1 fixed in 4% paraformaldehyde, 30 minutes
Method: as §1

[3] = tested on: prostate cancer DU145 cells; assay: Staining of prostate cells with lipid dyes, DU145; format: cell-based, Human; conditions: DU145 fixed in 4% paraformaldehyde, 30 minutes
Method: as §1

[4] = tested on: prostate cancer LNCaP cells; assay: Staining of prostate cells with lipid dyes, LNCaP; format: cell-based, Human; conditions: 30 minutes
Method: as §1

[5] = previously published complex; cited from earlier work
[6] = Lipophilicity by shake-flask method (7.4-buffered PBS / n-octanol); format: physicochemical; conditions: 7.4-buffered PBS solution and n-octanol
Method: The lipophilicity of the iridium complexes was measured by the shake-flask method using 7.4-buffered PBS and n-octanol as solvents (Table 2). The values range between 1.49 and 2.68 are typical for cyclometalated iridium complexes that have not been bioconjugated. […] In general, neutral complexes have log D7.4 values above 2.00 and there is an increased in lipophilicity of extending the tetrazolato ligand with the addition of a phenyl spacer in [Ir(ppy)2(TzPyPhCN)], or by extending the conjugation on passing from pyridine to quinoline or isoquinoline for [Ir(ppy)2(TzQn)] and [Ir(ppy)2(TziQn)]. Methylation in all cases reduces lipophilicity to log D7.4 values […], with the same trend within the family of methylated complexes as previously observed for the neutral ones.

[7] = Photophysical measurements (absorption, emission, lifetime, quantum yield) in diluted solutions; format: physicochemical
Source text: A summary of the photophysical data for the complexes as diluted solutions (10^−5 M) in dichloromethane, water, PBS, lysosomal fluid solution, and ethyl laurate is reported in Table 1. All the listed aqueous media also contain 0.1% DMSO to favour the solubilisation of the complexes. The various solvents have been chosen to identify potential modulations on the photophysical behaviour of the iridium complexes in diverse cellular environments such as cytoplasm, endosome/lysosomes acidic organelles, or lipid-rich compartments like membranes, endoplasmic reticulum, and lipid droplets. In general, the photophysical characteristics were measured in aerated solutions to take into account the presence of oxygen in live cells. On the other hand, dichloromethane solutions were compared as aerated and degassed to confirm oxygen sensitivity and triplet character of the excited states of the complexes.
Absorption spectra were recorded at room temperature using a Cary 4000 UV/Vis spectrometer. Uncorrected steady state emission and excitation spectra were recorded on an Edinburgh FLSP980-S2S2-stm spectrometer equipped with: i) a temperature-monitored cuvette holder; ii) 450 W Xenon arc lamp; iii) double excitation and emission monochromators; iv) a Peltier cooled Hamamatsu R928P photomultiplier tube (spectral range 200-870 nm). Emission and excitation spectra were corrected for source intensity (lamp and grating) and emission spectral response (detector and grating) by a calibration curve supplied with the instrument. According to the approach described by Demas and Crosby, luminescence quantum yields (Φem) were measured in optically dilute solutions (O.D.<0.1 at excitation wavelength) obtained from absorption spectra on a wavelength scale [nm] and compared to the reference emitter by the following equation: […]
where A is the absorbance at the excitation wavelength (λ), I is the intensity of the excitation light at the excitation wavelength (λ), n is the refractive index of the solvent, D is the integrated intensity of the luminescence and Φ is the quantum yield. The subscripts r and x refer to the reference and the sample, respectively. The quantum yield determinations were performed at identical excitation wavelength for the sample and the reference, therefore cancelling the I(λr)/I(λx) term in the equation. The quantum yields of complexes were measured against Rubipy in water (Φr=0.028). Emission lifetimes (z) were determined with the time correlated single photon counting technique (TCSPC) with the same Edinburgh FLSP980-S2S2-stm spectrometer using either a pulsed picosecond LED (EPLED/EPL 377 nm, FHWM<800 ps) or a microsecond flashlamp. The goodness of fit was assessed by minimising the reduced χ^2 function and by visual inspection of the weighted residuals. The solvents used for the preparation of the solutions for the photophysical investigations were of LR grade and the water was deionised. Degassing of the dichlorometane solutions was performed using the freeze-pump-thaw method. Experimental uncertainties are estimated to be ±8% for lifetime determinations, ±20% for quantum yields, ±2 nm and ±5 nm for absorption and emission peaks, respectively.

SMILES: CC1=CC(C)=[N+]2C1=C(C)c1c(C)cc(C)n1[B-]2(F)F [BODIPY® 493/503, reference compound]
- staining pattern [1]: localised staining to lipid droplets
- staining pattern [2]: diffused cytosolic staining and localised staining to lipid droplets
- staining pattern [3]: localised staining to lipid droplets

SMILES: CCCCC[C@@H](O)[C@H]1C(=O)O[C@H](C)[C@@H](O)/C=C/C=C/C=C/C=C/C=C(\C)[C@@H](O)C[C@H](O)C[C@H](O)C[C@H](O)C[C@H](O)C[C@H](O)C[C@@H]1O [Filipin, reference compound]
- staining pattern [1]: a number of small vesicles were brightly stained
- staining pattern [2]: quite bright vesicular and plasma membrane staining
- staining pattern ([4]; LNCaP fixed in 4% paraformaldehyde): a number of small vesicles were brightly stained
- staining pattern [3]: relatively low level

SMILES: c1cc[c]2c(c1)-c1cccc[n+]1[Ir]213([c]2ccccc2-c2cccc[n+]21)[n]1nnnc1-c1cccc[n+]13 [[Ir(ppy)2(TzPy)]]
- λem, structured emission [5]: 481 nm and 510 nm

- logD7.4, distribution coefficient [6]: 2.09 ± 0.06
- Emission λem ([7]; DCM, 298K, 10^−5 M): 618 nm
- τaer, excited state lifetime (relative weight in parentheses) ([7]; DCM, aerated, 298K): 131 ns
- Φaer, quantum yield ([7]; DCM, aerated, versus Ru(bpy)3^2+ in water (φr = 0.028)): 0.055
- τdeaer, excited state lifetime (relative weight in parentheses) ([7]; DCM, deaerated, 298K): 529 ns
- Φdeaer, quantum yield ([7]; DCM, deaerated, versus Ru(bpy)3^2+ in water (φr = 0.028)): 0.397
- knr ([7]; DCM, calculated as [(1 − φ)/τ] from deaerated solutions): 1.140 10^6s^−1
- kr ([7]; DCM, calculated as [φ/τ] from deaerated solutions): 7.505 10^5s^−1
- Emission λem ([7]; H2O with 0.1% DMSO, 298K, aerated): 618 nm
- Φ, quantum yield ([7]; H2O with 0.1% DMSO, aerated, versus Ru(bpy)3^2+ in water): 0.047
SMILES: N#Cc1ccc2[n+](c1)[Ir]13([c]4ccccc4-c4cccc[n+]41)([c]1ccccc1-c1cccc[n+]13)[n]1nnnc1-2 [[Ir(ppy)2(TzPyCN)]]
- staining pattern / intensity ([4]; live LNCaP, 20 μM, serum-free media, listed as IraZolve): stains the endoplasmic reticulum, where both phospholipids and triacylglycerides are synthesised, and it also co-localises with fatty acids in lipid droplets; also recorded: almost identical to that observed for ReZolve-L1™; also recorded: significantly greater
- Absorption λabs [nm] (10^4ε [M^−1cm^−1]) ([7]; DCM, 10^−5 M): 263 (6.57) nm (10^4ε [M^−1cm^−1]) and 339 (1.59) nm (10^4ε [M^−1cm^−1]) and 382 (1.09) nm (10^4ε [M^−1cm^−1]) and 420 (0.58) nm (10^4ε [M^−1cm^−1])
